In PMC6255837, “Ternary crystal structure of human RORγ ligand-binding-domain, an inhibitor and corepressor peptide provides a new insight into corepressor interaction” (Scientific Reports, 2018):
pEC50: −log10 of the molar value.

Experiments:
[1] = tested on: IL-17 release; design: method as in PMID 26819660; conditions: orally administered, inflammatory model mice; cited from earlier work
[2] = biological target: T1, RORγ-LBD (Homo sapiens, UniProt P51449); assay: FRET-based CoR peptide recruitment assay (dual TR-FRET); type: biochemical; conditions: for relative efficacy (RE) in CoR recruitment: compared with compound A
T1 construct: the glutathione-S-transferase (GST)-tagged RORγ-LBD produced in Sf9 cells; GST; made in house; host or cells: Sf9 cells
T1 sequence (P51449 269-508 limits assumed): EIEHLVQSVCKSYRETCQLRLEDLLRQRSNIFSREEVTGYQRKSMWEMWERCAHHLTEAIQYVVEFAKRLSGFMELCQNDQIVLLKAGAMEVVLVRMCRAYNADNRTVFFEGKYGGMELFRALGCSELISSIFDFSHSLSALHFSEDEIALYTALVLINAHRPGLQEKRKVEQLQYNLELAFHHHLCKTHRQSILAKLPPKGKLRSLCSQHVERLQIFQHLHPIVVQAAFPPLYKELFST
Experimental: Figure 1 The relative efficacy (RE) of CoR peptide recruitment to the RORγ-LBD and LUC activity by inverse agonists. […] Background activity in the absence of a standard inverse agonist is defined as 0% response; and maximum activity induced by a standard inverse agonist at 100μM as 100% response. […] A value of 100% is given to cells without inverse agonist in LUC assay. […] Detailed methods on plasmid construction, sample preparation, crystallization, structure determination, and FRET and LUC assays are provided in previous publications. […] The purified proteins were crystallized in complex with rockogenin and CoR peptide (ternary complex structures). […] The complex structures were determined by molecular replacement method using the RORγ-LBD apo structures as a search model. Diffraction data of the RORγ-LBD were collected at 21IDF (APS), Chicago, USA. Figures were generated using PyMOL[30].
(§1) For TR-FRET assays, the glutathione-S-transferase (GST)-tagged RORγ-LBD produced in Sf9 cells and peptide solution were incubated with compounds, and the 520/490 TR-FRET ratio was measured. Human RORγ LUC assays were carried out in accordance with the method of Madoux et al.[31] with some modifications and described previously. EC50 was calculated by curve-fitting in GraphPad Prism. Detailed descriptions of synthesis for the compounds are described elsewhere[9],[22].

[3] = tested on: Th17 cells; design: method as in earlier work; conditions: cited from earlier work
[4] = biological target: T1, RORγ-LBD; assay: FRET-based CoA peptide releasing assay (dual TR-FRET); type: biochemical; conditions: GST-tagged RORγ-LBD, read-out: EC50 release of CoA peptide (FRET)
Experimental: Figure 1 The relative efficacy (RE) of CoR peptide recruitment to the RORγ-LBD and LUC activity by inverse agonists. […] Background activity in the absence of a standard inverse agonist is defined as 0% response; and maximum activity induced by a standard inverse agonist at 100μM as 100% response. […] A value of 100% is given to cells without inverse agonist in LUC assay.
Detailed methods on plasmid construction, sample preparation, crystallization, structure determination, and FRET and LUC assays are provided in previous publications. […] The purified proteins were crystallized in complex with rockogenin and CoR peptide (ternary complex structures). […] The complex structures were determined by molecular replacement method using the RORγ-LBD apo structures as a search model. Diffraction data of the RORγ-LBD were collected at 21IDF (APS), Chicago, USA. Figures were generated using PyMOL[30].
as §1

[5] = biological target: T2, Human RORγ (Homo sapiens, UniProt P51449); assay: Human RORγ luciferase (LUC) reporter assay; type: cell-based; conditions: for LUC activity relative to compound A: fold difference of EC50 versus compound A
T2 sequence (P51449 1-518): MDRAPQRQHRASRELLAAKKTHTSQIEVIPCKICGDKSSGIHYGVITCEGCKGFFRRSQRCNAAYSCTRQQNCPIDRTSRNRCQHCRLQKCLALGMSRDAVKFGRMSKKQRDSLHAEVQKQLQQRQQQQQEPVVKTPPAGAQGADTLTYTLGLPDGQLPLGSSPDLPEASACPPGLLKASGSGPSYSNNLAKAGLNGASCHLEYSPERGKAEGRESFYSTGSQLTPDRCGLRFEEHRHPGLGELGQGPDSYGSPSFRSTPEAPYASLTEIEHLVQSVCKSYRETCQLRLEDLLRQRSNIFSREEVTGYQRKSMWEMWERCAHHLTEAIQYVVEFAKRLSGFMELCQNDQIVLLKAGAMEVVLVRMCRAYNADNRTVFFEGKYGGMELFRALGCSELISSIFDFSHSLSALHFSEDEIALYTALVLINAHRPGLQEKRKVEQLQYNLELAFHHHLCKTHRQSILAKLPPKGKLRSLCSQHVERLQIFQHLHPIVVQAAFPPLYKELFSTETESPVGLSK
Experimental: Figure 1 The relative efficacy (RE) of CoR peptide recruitment to the RORγ-LBD and LUC activity by inverse agonists. […] Background activity in the absence of a standard inverse agonist is defined as 0% response; and maximum activity induced by a standard inverse agonist at 100μM as 100% response. […] A value of 100% is given to cells without inverse agonist in LUC assay. […] Human RORγ LUC assays were carried out in accordance with the method of Madoux et al.[31] with some modifications and described previously. EC50 was calculated by curve-fitting in GraphPad Prism. Detailed descriptions of synthesis for the compounds are described elsewhere[9],[22].

CC(=O)N1CC(C(=O)Nc2ccc(C)cc2C)C(c2nnc(C3CC(CC(C)C)C3)n2C2CC2)C1 (stereo not shown) [compound A]
IL-17 release [1]: effectively suppressed IL-17 release in a dose-dependent manner

COc1ccc(-c2c(-c3nc(CC(=O)NCC4CCOCC4)cs3)cnn2C(C)(C)C)cc1 [compound T]
pEC50 ([2]; TR-FRET, GST-tagged RORγ-LBD, compound T n = 1): 6.60 | relative efficacy (RE) in CoR recruitment [2]: about half that of compound A | relative efficacy (RE) in CoR recruitment ([2]; listed as Compound T): half the efficacy of compound A | production of IL-17 [3]: inhibits the production of IL-17 | pEC50 [4]: 6.30 | LUC activity relative to compound A [5]: nine times lower activity | LUC activity relative to compound A ([5]; listed as Compound T): nine-times lower than compound A | pEC50 ([5]; luciferase reporter assay, means ± SE (n = 2–3)): 6.36

C[C@@H]1CC[C@@]2(OC1)O[C@H]1C[C@H]3[C@@H]4CC[C@H]5C[C@@H](O)CC[C@]5(C)[C@H]4C[C@@H](O)[C@]3(C)[C@H]1[C@@H]2C [rockogenin]
CoR peptide-recruiting activity in dual FRET assay ([2]; result in words): not detected
